Data published in patent US10392348B2, “2-oxo-3,4-dihydroquinoline compounds as plant growth regulators” (Syngenta Participations AG, priority 2015, dated 2019).
Like-named read-outs stand apart in the source and are kept apart here.

Key:
[1] = tested on: corn plants (variety NK OCTET); assay: Reduced plant water use in corn (foliar spray, repeated weighing of pots); assay type: in vivo; conditions: Zea mays, corn plants sprayed at 500 μM, average of 6 pots
Description: Compounds were tested for their effect on reducing plant water use as follows. The compounds were applied by foliar spray to 12 day old corn plants (variety NK OCTET) grown in controlled environment plant growth chambers. All compounds were applied using an emulsifiable concentrate (EC) formulation that was diluted to the desired concentrations with water containing 0.4% of the adjuvant rape seed methyl ester. Plant water use during the day was assessed by repeated weighing of the pots in which the plants were grown before and after application of the compounds at the indicated times (expressed in days after application (DAA)). The water use data before application was used to correct any differences in water use arising due to non-treatment effects (e.g. due to differences in plant size). The untransformed water use values were subjected to an analysis of covariance, fitting the effect of treatment and using the baseline water use 1 day before application as a covariate. Application of the chemicals (0 DAA) takes place approximately between 08:00 and 09:30 a.m. WU is measured within day time (chamber light is on 06:00 to 20:00) at these timepoints: 0 DAA a.m. (10:30-12:50), 0 DAA p.m. (14:00-19:50), 1 DAA a.m. (07:30-12:50), 1 DAA p.m. (14:00-19:50), 2 DAA a.m. (07:30-12:50) and 2 DAA p.m. (14:00-19:50). The cumulative total WU (0-2.5 DAA) is calculated by summing the WU data mentioned above.

[2] = tested on: soybean plants (variety S20-G7); assay: Reduced plant water use in soybean (foliar spray, repeated weighing of pots); assay type: in vivo; conditions: Glycine max, foliar, Table B1, sprayed at 500 μM, vs negative control
Description: Compounds were tested for their effect on reducing plant water use as follows. Each compound was dissolved in a blank emulsifiable concentrate (EC) formulation that was then diluted to the desired concentration with water containing additional surfactant (EXTRAVON 1 g/20 L). The compounds were applied by foliar spray to 12 day old soybean plants (variety S20-G7) grown in controlled environment plant growth chambers. Plant water use during the day was assessed by repeated weighing of the pots in which the plants were grown before and after application of the compounds at the indicated times (expressed in days after application (DAA)). The water use data before application was used to correct any differences in water use arising due to non-treatment effects (e.g. due to differences in plant size). The untransformed water use values were subjected to an analysis of covariance, fitting the effect of treatment and using the baseline water use 1 day before application as a covariate.
The results are expressed compared to negative control treatment (diluted EC formulation without active ingredient but with EXTRAVON 1 g/20 L).
Application of the chemicals (0 DAA) takes place approximately between 08:00 and 09:30 a.m. WU is measured within day time (chamber light is on 06:00 to 20:00) at these timepoints: 0 DAA a.m. (10:30-12:50), 0 DAA p.m. (14:00-19:50), 1 DAA a.m. (7:30-12:50), 1 DAA p.m. (14:00-19:50), 2 DAA a.m. (07:30-12:50) and 2 DAA p.m. (14:00-19:50). The cumulative total WU (0-2.5 DAA) is calculated by summing the WU data mentioned above.

[3] = 0 h, water use during day time vs negative control, 0 DAA a.m. (10:30-12:50), read-out: % WU 0 DAA AM
[4] = 0 h, water use during day time vs negative control, 0 DAA p.m. (14:00-19:50), read-out: % WU 0DAA PM
[5] = 24 h, water use during day time vs negative control, 1 DAA a.m. (07:30-12:50), read-out: % WU 1DAA AM
[6] = 24 h, water use during day time vs negative control, 1 DAA p.m. (14:00-19:50), read-out: % WU 1DAA PM
[7] = 48 h, water use during day time vs negative control, 2 DAA a.m. (07:30-12:50), read-out: % WU 2 DAA AM
[8] = 48 h, water use during day time vs negative control, 2 DAA p.m. (14:00-19:50), read-out: % WU 2 DAA PM
[9] = 60 h, cumulative total water use 0-2.5 DAA (sum of the time points) vs negative control, read-out: % WU Total 0 to 2.5 DAA
[10] = 0 h, 0 DAA a.m. (10:30-12:50), read-out: % WU 0 DAA AM
[11] = 24 h, 1 DAA a.m. (7:30-12:50), read-out: % WU 1DAA AM
[12] = 24 h, 1 DAA p.m. (14:00-19:50), read-out: % WU 1DAA PM
[13] = 48 h, 2 DAA a.m. (07:30-12:50), read-out: % WU 2 DAA AM
[14] = 48 h, 2 DAA p.m. (14:00-19:50), read-out: % WU 2 DAA PM
[15] = 60 h, cumulative total WU (0-2.5 DAA), read-out: % WU Total 0 to 2.5 DAA

CCN1C(=O)CCc2cc(CNS(=O)(=O)c3cc(Cl)sc3Cl)ccc21 [Compound 2.064, 2,5-dichloro-N-[(1-ethyl-2-oxo-3,4-dihydroquinolin-6-yl)methyl]thiophene-3-sulfonamide]
melting point: 198 to 201 °C

CCN1C(=O)CCc2cc(CNS(=O)(=O)/C=C/c3ccc(C)cc3)ccc21 [Compound 2.059, (E)-N-[(1-ethyl-2-oxo-3,4-dihydroquinolin-6-yl)methyl]-2-(p-tolyl)ethenesulfonamide]
melting point: 151 to 153 °C

CCCN1C(=O)CCc2cc(C3(NS(=O)(=O)c4ccccc4)CC3)ccc21 [Compound 15.001, N-[1-(2-oxo-1-propyl-3,4-dihydroquinolin-6-yl)cyclopropyl]benzenesulfonamide]
change in vivo at 500 µM [1, 3]: -8.2%
change in vivo at 500 µM [1, 4]: -6.5%
change in vivo at 500 µM [1, 5]: -6.5%
change in vivo at 500 µM [1, 6]: -3.5%
change in vivo at 500 µM [1, 7]: -2.8%
change in vivo at 500 µM [1, 8]: -1.8%
change in vivo at 500 µM [1, 9]: -4.3%
change in vivo at 500 µM [2, 10]: -27.4%
change in vivo at 500 µM [2, 11]: -14.9%
change in vivo at 500 µM [2, 12]: -13.9%
change in vivo at 500 µM [2, 13]: -9.5%
change in vivo at 500 µM [2, 14]: -7.2%
change in vivo at 500 µM [2, 15]: -15.1%

CCCN1C(=O)CCc2cc(C3(NS(=O)(=O)c4ccc(F)cc4)CC3)ccc21 [Compound 15.009, 4-fluoro-N-[1-(2-oxo-1-propyl-3,4-dihydroquinolin-6-yl)cyclopropyl]benzenesulfonamide]
change in vivo at 500 µM [1, 3]: -10.7%
change in vivo at 500 µM [1, 4]: -7.8%
change in vivo at 500 µM [1, 5]: -8.7%
change in vivo at 500 µM [1, 6]: -5.8%
change in vivo at 500 µM [1, 7]: -5.4%
change in vivo at 500 µM [1, 8]: -5.7%
change in vivo at 500 µM [1, 9]: -7.1%

C=CCS(=O)(=O)NCc1ccc2c(c1)CCC(=O)N2CCC [Compound 3.071, N-[(2-oxo-1-propyl-3,4-dihydroquinolin-6-yl)methyl]prop-2-ene-1-sulfonamide]
change in vivo at 500 µM [1, 3]: -11.2%
change in vivo at 500 µM [1, 4]: -6.5%
change in vivo at 500 µM [1, 5]: -4.5%
change in vivo at 500 µM [1, 6]: -4.7%
change in vivo at 500 µM [1, 7]: -3.5%
change in vivo at 500 µM [1, 8]: -2.4%
change in vivo at 500 µM [1, 9]: -4.9%

CCCN1C(=O)CCc2cc(CNS(=O)(=O)/C=C/c3ccccc3F)ccc21 [Compound 3.056, (E)-2-(2-fluorophenyl)-N-[(2-oxo-1-propyl-3,4-dihydroquinolin-6-yl)methyl]ethenesulfonamide]
change in vivo at 500 µM [1, 3]: -8.4%
change in vivo at 500 µM [1, 4]: -2.7%
change in vivo at 500 µM [1, 5]: -5.6%
change in vivo at 500 µM [1, 6]: -4.4%
change in vivo at 500 µM [1, 7]: -4.7%
change in vivo at 500 µM [1, 8]: -3.2%
change in vivo at 500 µM [1, 9]: -4.6%

CCCN1C(=O)CCc2cc(CNS(=O)(=O)CCCC(F)(F)F)ccc21 [Compound 3.020, 4,4,4-trifluoro-N-[(2-oxo-1-propyl-3,4-dihydroquinolin-6-yl)methyl]butane-1-sulfonamide]
change in vivo at 500 µM [1, 3]: -19.2%
change in vivo at 500 µM [1, 4]: -13.7%
change in vivo at 500 µM [1, 5]: -14.8%
change in vivo at 500 µM [1, 6]: -12.1%
change in vivo at 500 µM [1, 7]: -11.5%
change in vivo at 500 µM [1, 8]: -8.5%
change in vivo at 500 µM [1, 9]: -12.7%
change in vivo at 500 µM [2, 10]: -19.3%
change in vivo at 500 µM [2, 11]: -10.1%
change in vivo at 500 µM [2, 12]: -5.5%
change in vivo at 500 µM [2, 13]: -7.4%
change in vivo at 500 µM [2, 14]: -4.2%
change in vivo at 500 µM [2, 15]: -8.5%

CCN1C(=O)CC(C)c2cc(CNS(=O)(=O)c3ccccc3)ccc21 (stereo not drawn) [Compound 20.001, N-[(1-ethyl-4-methyl-2-oxo-3,4-dihydroquinolin-6-yl)methyl]benzenesulfonamide]
change in vivo at 500 µM [1, 3]: -21.7%
change in vivo at 500 µM [1, 4]: -18.3%
change in vivo at 500 µM [1, 5]: -19.2%
change in vivo at 500 µM [1, 6]: -10.3%
change in vivo at 500 µM [1, 7]: -8.1%
change in vivo at 500 µM [1, 8]: -5.5%
change in vivo at 500 µM [1, 9]: -12.9%
change in vivo at 500 µM [2, 10]: -50.1%
change in vivo at 500 µM [2, 11]: -58.5%
change in vivo at 500 µM [2, 12]: -55.2%
change in vivo at 500 µM [2, 13]: -55.8%
change in vivo at 500 µM [2, 14]: -50.5%
change in vivo at 500 µM [2, 15]: -54.4%

C/C=C/CS(=O)(=O)NCc1ccc2c(c1)CCC(=O)N2CCC [Compound 3.066, (E)-N-[(2-oxo-1-propyl-3,4-dihydroquinolin-6-yl)methyl]but-2-ene-1-sulfonamide]
change in vivo at 500 µM [1, 3]: -10.8%
change in vivo at 500 µM [1, 4]: -7.1%
change in vivo at 500 µM [1, 5]: -7.1%
change in vivo at 500 µM [1, 6]: -6.8%
change in vivo at 500 µM [1, 7]: -4.7%
change in vivo at 500 µM [1, 8]: -5.5%
change in vivo at 500 µM [1, 9]: -6.4%

CCCN1C(=O)CCc2cc(CNS(=O)(=O)CCC)ccc21 [Compound 3.062, N-[(2-oxo-1-propyl-3,4-dihydroquinolin-6-yl)methyl]propane-1-sulfonamide]
change in vivo at 500 µM [1, 3]: -17.8%
change in vivo at 500 µM [1, 4]: -13%
change in vivo at 500 µM [1, 5]: -13%
change in vivo at 500 µM [1, 6]: -9.8%
change in vivo at 500 µM [1, 7]: -8.1%
change in vivo at 500 µM [1, 8]: -6.3%
change in vivo at 500 µM [1, 9]: -10.5%

CCN1C(=O)CC(C)c2cc(CNS(=O)(=O)c3ccc(F)cc3F)ccc21 (stereo not drawn) [Compound 20.006, N-[(1-ethyl-4-methyl-2-oxo-3,4-dihydroquinolin-6-yl)methyl]-2,4-difluoro-benzenesulfonamide]
change in vivo at 500 µM [1, 3]: -15.5%
change in vivo at 500 µM [1, 4]: -14.5%
change in vivo at 500 µM [1, 5]: -13.2%
change in vivo at 500 µM [1, 6]: -7%
change in vivo at 500 µM [1, 7]: -5.7%
change in vivo at 500 µM [1, 8]: -4.3%
change in vivo at 500 µM [1, 9]: -9.4%

CCCN1C(=O)CCc2cc(C3(NS(=O)(=O)c4ccc(F)cc4F)CC3)ccc21 [Compound 15.006, 2,4-difluoro-N-[1-(2-oxo-1-propyl-3,4-dihydroquinolin-6-yl)cyclopropyl]benzenesulfonamide]
change in vivo at 500 µM [1, 3]: -10.2%
change in vivo at 500 µM [1, 4]: -3%
change in vivo at 500 µM [1, 5]: -1.4%
change in vivo at 500 µM [1, 6]: 0.1%
change in vivo at 500 µM [1, 7]: 1.7%
change in vivo at 500 µM [1, 8]: 1.1%
change in vivo at 500 µM [1, 9]: -1.2%
change in vivo at 500 µM [2, 10]: -32.6%
change in vivo at 500 µM [2, 11]: -23.6%
change in vivo at 500 µM [2, 12]: -24.4%
change in vivo at 500 µM [2, 13]: -17%
change in vivo at 500 µM [2, 14]: -17.8%
change in vivo at 500 µM [2, 15]: -23.8%

C=CCN1C(=O)CCc2cc(CNS(=O)(=O)c3ccccc3)ccc21 [Compound 5.001, N-[(1-allyl-2-oxo-3,4-dihydroquinolin-6-yl)methyl]benzenesulfonamide]
change in vivo at 500 µM [2, 10]: -15.1%
change in vivo at 500 µM [2, 11]: -18.7%
change in vivo at 500 µM [2, 12]: -17.4%
change in vivo at 500 µM [2, 13]: -16.5%
change in vivo at 500 µM [2, 14]: -15.6%
change in vivo at 500 µM [2, 15]: -17.1%
